Tests used:
[1] = system: poly(ADP-ribose) polymerase 2 (PARP2); assay: PARP2 auto-poly(ADP-ribosyl)ation with [32P]-NAD+; type: biochemical, human; details: compound 500 μM, PARP2 600 nM, 0.6 mM [32P]-NAD+, 5 min, 37 °C; mean ± SD
Excerpt: (§1) Recombinant human proteins tyrosyl-DNA phosphodiesterase 1 (TDP1) and tyrosyl-DNA phosphodiesterase 2 (TDP2) were expressed in the E. coli system, poly(ADP-ribose) polymerase 1 (PARP1) and poly(ADP-ribose) polymerase 2 (PARP2) were expressed in insect cells using a baculovirus expression system and purified as described in (Sukhanova et al., 2004; Sherstyuk et al., 2019; Dyrkheeva et al., 2020, 2021).
(§2) Determination of PARP1 and PARP2 activity. For determination of PARP1 and PARP2 enzyme activity in the presence and absence of test compounds, radiolabeled [32P]-NAD⁺ was synthesized from α-[32P]-ATP according to the protocol (Sherstyuk et al., 2019). The auto-poly(ADPribosyl) ation reaction was performed in buffer for PARP1: 50 mM Tris-HCl, pH 8.0, 10 mM MgCl2, 150 mM NaCl, and 7 mM β-mercaptoethanol, as well as 2 A260 units/ml activated DNA, 0.3 mM [32P]-NAD⁺ at 37 °C. The reaction was initiated by addition of PARP1 to 200 nM and carried out for 2 min
(§3) The buffer for PARP2 contained: 50 mM Tris-HCl, pH 8.0, 3 mM spermine, 150 mM NaCl, and 7 mM β-mercaptoethanol, 2 A260 units/ml activated DNA, 0.6 mM [32P]-NAD⁺ at 37 °C. The reaction was initiated by addition of PARP2 to 600 nM, and the reaction mixtures were incubated for 5 min. The reaction was stopped by placing 5 μl aliquots on Whatman 1 paper filters impregnated with 5 % trichloroacetic acid (TCA). The filters were washed with 5 % TCA four times and air-dried after removal of TCA with 90 % ethanol. The incorporation of the radioactive label into the reaction product was calculated using a Typhoon FLA 9500 scanner (GE Healthcare, Chicago, Illinois, USA). At least three independent experiments were performed.

[2] = target: T1, poly(ADP-ribose) polymerase 1 (PARP1) (Homo sapiens, UniProt P09874); assay: PARP1 auto-poly(ADP-ribosyl)ation with [32P]-NAD+; type: biochemical; details: compound 500 μM, PARP1 200 nM, 0.3 mM [32P]-NAD+, 2 min, 37 °C; mean ± SD; read-out: PARP1 % of residual activity (500 μM)
T1 construct: made in house; host or cells: insect cells (baculovirus expression system)
T1 sequence (P09874 whole entry): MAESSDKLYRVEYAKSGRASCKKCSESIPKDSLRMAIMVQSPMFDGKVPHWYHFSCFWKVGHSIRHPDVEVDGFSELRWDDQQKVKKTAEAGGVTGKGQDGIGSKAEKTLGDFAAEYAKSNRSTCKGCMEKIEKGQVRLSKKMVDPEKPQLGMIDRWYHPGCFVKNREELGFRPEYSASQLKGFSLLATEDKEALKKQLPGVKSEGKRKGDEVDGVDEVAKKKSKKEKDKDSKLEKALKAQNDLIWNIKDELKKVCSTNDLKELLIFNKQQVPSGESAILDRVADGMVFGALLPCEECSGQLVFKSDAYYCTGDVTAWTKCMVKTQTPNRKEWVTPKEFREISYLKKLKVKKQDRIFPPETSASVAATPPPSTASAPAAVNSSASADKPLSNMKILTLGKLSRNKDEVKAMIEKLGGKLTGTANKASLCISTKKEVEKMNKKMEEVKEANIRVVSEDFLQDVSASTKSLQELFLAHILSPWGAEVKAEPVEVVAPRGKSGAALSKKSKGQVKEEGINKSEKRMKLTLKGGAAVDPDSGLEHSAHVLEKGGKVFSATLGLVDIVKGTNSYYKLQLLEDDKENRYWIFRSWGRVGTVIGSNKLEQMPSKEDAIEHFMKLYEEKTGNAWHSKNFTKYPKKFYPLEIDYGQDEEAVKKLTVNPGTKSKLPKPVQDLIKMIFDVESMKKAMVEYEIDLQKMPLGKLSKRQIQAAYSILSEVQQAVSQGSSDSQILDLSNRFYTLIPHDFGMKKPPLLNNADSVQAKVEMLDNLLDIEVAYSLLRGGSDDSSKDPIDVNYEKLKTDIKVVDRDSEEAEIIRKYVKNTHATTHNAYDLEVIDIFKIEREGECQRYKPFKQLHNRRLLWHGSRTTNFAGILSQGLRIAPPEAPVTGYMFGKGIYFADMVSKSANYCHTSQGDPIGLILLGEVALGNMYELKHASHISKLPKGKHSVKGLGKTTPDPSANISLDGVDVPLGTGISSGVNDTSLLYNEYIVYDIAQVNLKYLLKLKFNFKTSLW
Excerpt: as §1, §2, §3

[3] = target: T2, tyrosyl-DNA phosphodiesterase 2 (TDP2) (Homo sapiens, UniProt O95551); assay: TDP2 activity, removal of 5′-tyrosine from oligonucleotide substrate, denaturing PAGE; type: biochemical; details: inhibitor 500 μM, TDP2 200 nM, substrate 100 nM, 10 min, 37 °C; mean ± SD; read-out: TDP2 % of residual activity (500 μM)
T2 construct: made in house; host or cells: E. coli
T2 sequence (O95551 1-362): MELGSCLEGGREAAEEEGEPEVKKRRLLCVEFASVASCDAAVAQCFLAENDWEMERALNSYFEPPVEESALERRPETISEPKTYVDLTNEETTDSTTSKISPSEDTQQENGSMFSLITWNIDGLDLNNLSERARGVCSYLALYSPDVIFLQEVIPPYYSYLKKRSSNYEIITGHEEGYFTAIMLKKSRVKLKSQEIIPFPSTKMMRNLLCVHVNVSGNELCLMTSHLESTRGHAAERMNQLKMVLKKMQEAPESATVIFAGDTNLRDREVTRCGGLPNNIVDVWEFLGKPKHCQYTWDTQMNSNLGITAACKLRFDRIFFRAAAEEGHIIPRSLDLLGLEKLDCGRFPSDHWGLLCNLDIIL
Excerpt: as §1
Determination of TDP2 activity. For determination of TDP2 enzyme activity, an oligonucleotide 5′-tyrosine-AAC GTC AGG GTC TTC C-FAM-3′ containing a 6-FAM label at the 3′-end and an L-tyrosine residue attached via the phenolic OH group to the 5′-terminal phosphate was used as substrate, synthesized at the Russian-French-Japanese Laboratory of Bionanotechnology of Novosibirsk State University as described in (Dyrkheeva et al., 2021). The substrate at a concentration of 100 nM was incubated with TDP2 at a concentration of 200 nM in the absence or presence of inhibitor (500 μM) for 10 min at 37 °C in buffer containing 50 mM Tris-HCl, pH 8.0, 50 mM NaCl, 7 mM β-mercaptoethanol (Dyrkheeva et al., 2021). The reaction was stopped by addition of PAGE loading buffer (TBE, 10 % formamide, 7 M urea, 20 mM EDTA, 0.1 % xylene cyanol, and 0.1 % bromophenol blue). The samples were then heated at 90 °C for 5 min. The enzymatic reaction products were separated by electrophoresis in 20 % denaturing PAGE with 7 M urea at an acrylamide to bisacrylamide ratio of 19:1. A high-resolution Typhoon FLA 9500 laser scanner (GE Healthcare, Chicago, Illinois, USA) was used for gel scanning and visualization, and the data were analyzed using QuantityOne 4.6.7 software (Bio- Rad Laboratories, Inc., Hercules, California, USA). At least three independent experiments were performed, and statistical processing was carried out using OriginPro 8.6.0 (OriginLab, Northampton, Massachusetts, USA).
To study the effect of the studied compounds on TDP2 activity, we tested the ability of this enzyme to remove the tyrosine residue from the 5′-end of the oligonucleotide substrate in the absence and presence of inhibitors, as described in (Dyrkheeva et al., 2021).

[4] = target: T3, tyrosyl-DNA phosphodiesterase 1 (TDP1) (Homo sapiens, UniProt Q9NUW8); assay: Real-time fluorescent detection of TDP1 activity (BHQ1 cleavage from 3′-end of single-stranded FAM oligonucleotide); type: biochemical; details: recombinant TDP1 1.5 nM, 50 nM single-stranded oligonucleotide, 26 °C; mean ± SD, at least three replicates
T3 construct: made in house; host or cells: E. coli
T3 sequence (Q9NUW8 whole entry): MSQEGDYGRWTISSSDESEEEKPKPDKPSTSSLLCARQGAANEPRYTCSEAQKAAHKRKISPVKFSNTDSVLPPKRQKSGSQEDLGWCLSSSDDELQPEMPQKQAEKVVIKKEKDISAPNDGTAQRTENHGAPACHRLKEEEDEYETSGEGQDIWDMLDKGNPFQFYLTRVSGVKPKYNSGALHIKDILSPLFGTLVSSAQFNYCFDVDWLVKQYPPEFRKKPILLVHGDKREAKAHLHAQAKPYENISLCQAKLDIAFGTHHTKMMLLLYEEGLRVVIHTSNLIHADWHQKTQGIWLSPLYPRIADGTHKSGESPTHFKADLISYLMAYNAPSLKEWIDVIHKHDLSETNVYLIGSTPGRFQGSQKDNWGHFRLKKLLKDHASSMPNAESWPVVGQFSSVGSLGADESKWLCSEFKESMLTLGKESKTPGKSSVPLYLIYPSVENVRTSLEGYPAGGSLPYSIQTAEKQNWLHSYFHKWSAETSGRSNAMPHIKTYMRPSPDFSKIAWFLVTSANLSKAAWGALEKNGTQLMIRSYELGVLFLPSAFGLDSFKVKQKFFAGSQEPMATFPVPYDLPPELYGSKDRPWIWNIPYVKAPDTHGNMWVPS
Procedure: as §1
Determination of TDP1 activity. The reaction mixture (200 μl) for real-time fluorescent detection of TDP1 enzyme activity (Zakharenko et al., 2015) contained TDP1 reaction buffer (50 mM Tris-HCl, pH 8.0, 50 mM NaCl, and 7 mM β-mercaptoethanol), 50 nM oligonucleotide 5′-FAM-AAC GTC AGG GTC TTC C-BHQ1-3′, the test compound at various concentrations, and TDP1 at a final concentration of 1.5 nM. The reaction mixtures were incubated at a constant temperature of 26 °C in a POLARstar OPTIMA microplate fluorometer (BMG LABTECH, GmbH, Ortenberg, Germany). Fluorescence intensity (Ex485/Em520 nm) was measured every minute for 10 min. Mean values of half-maximal inhibitory concentration (IC50 – the concentration of the compound that inhibited 50 % of enzyme activity compared to the untreated control well containing only enzyme and substrate) were determined using a dose-response curve of the fluorescence signal level versus inhibitor concentration and calculated using MARS Data Analysis 2.0 (BMG LABTECH). Kinetic curves were obtained in at least three independent experiments and statistically processed in OriginPro 8.6.0 (OriginLab, Northampton, Massachusetts, USA).
The third group of compounds includes derivatives of the monomeric compound MB2Py(Ac), which is an isosteric analog of MB3, due to the fact that the pyrrolecarboxamide fragment contained in its structure can act as a hydrogen atom donor at the carboxamide nitrogen for hydrogen bond formation, in a position analogous to benzimidazole. Dimeric derivatives are represented by the DB2Py(n) series containing n-alkyldicarboxylic acids as a linker. This series is represented by a set of compounds containing 1, 3, 4, 5, 7, 9, and 11 methylene units, which allowed for a more accurate assessment of the dependence of the inhibitory activity of compounds on spacer length. The DB2Py(n) series differs from the DB3(n) series by the presence, in addition to the bisbenzimidazole structure, of a pyrrolecarboxamide structure, which is a fragment of the AT-specific antibiotic netropsin.Using the real-time fluorescence analysis method, halfmaximal inhibitory concentration (IC50) values of the studied compounds (see the Table) were obtained in the reaction of BHQ1 cleavage from the 3′-end of the oligonucleotide by TDP1, which led to an increase in FAM fluorescence at the 5′-end of the chain (Zakharenko et al., 2015). It should also be noted that a single-stranded oligonucleotide was used as substrate to exclude the binding of dimeric bisbenzimidazoles as minor-groove ligands to the DNA substrate and direct their action toward the enzymatic target.

In the case of CCCn1cc(NC(=O)CCCCCC(=O)Nc2cc(-c3nc4ccc(-c5nc6ccc(N7CCN(C)CC7)cc6[nH]5)cc4[nH]3)n(CCC)c2)cc1-c1nc2ccc(-c3nc4ccc(N5CCN(C)CC5)cc4[nH]3)cc2[nH]1 [DB2Py(5)], the “PARP2 % of residual activity (500 μM)” value [1] is reported as ~ 100%, the remaining activity at 500 µM [2] is reported as about 100% and the remaining activity at 500 µM [3] is reported as about 100%. It also gave an IC50 [4] of 350 ± 130 nM.

CCCn1cc(NC(=O)CCCCC(=O)Nc2cc(-c3nc4ccc(-c5nc6ccc(N7CCN(C)CC7)cc6[nH]5)cc4[nH]3)n(CCC)c2)cc1-c1nc2ccc(-c3nc4ccc(N5CCN(C)CC5)cc4[nH]3)cc2[nH]1 [DB2Py(4)] was tested, and the “PARP2 % of residual activity (500 μM)” value [1] was ~ 100%, the remaining activity at 500 µM [2] was about 100% and the remaining activity at 500 µM [3] was about 100%. It also gave an IC50 [4] of 400 ± 150 nM.

With CN1CCN(c2ccc3nc(-c4ccc5nc(CNC(=O)CCCN6CCN(CCCC(=O)NCc7nc8ccc(-c9nc%10ccc(N%11CCN(C)CC%11)cc%10[nH]9)cc8[nH]7)CC6)[nH]c5c4)[nH]c3c2)CC1 [DB2P(3)] the “PARP2 % of residual activity (500 μM)” value [1] was 64 ± 16%, the remaining activity at 500 µM [2] was 37 ± 10% and the remaining activity at 500 µM [3] was 36 ± 7%. It also gave an IC50 [4] of 4100 ± 600 nM.

CN1CCN(c2ccc3nc(-c4ccc5nc(-c6ccc7nc(CN)[nH]c7c6)[nH]c5c4)[nH]c3c2)CC1 [MB3] was tested, and the “PARP2 % of residual activity (500 μM)” value [1] was ~ 100%, the remaining activity at 500 µM [2] was 65 ± 15% and the remaining activity at 500 µM [3] was about 100%. It also gave an IC50 [4] of 700 ± 50 nM.

CCCn1cc(NC(=O)CCCC(=O)Nc2cc(-c3nc4ccc(-c5nc6ccc(N7CCN(C)CC7)cc6[nH]5)cc4[nH]3)n(CCC)c2)cc1-c1nc2ccc(-c3nc4ccc(N5CCN(C)CC5)cc4[nH]3)cc2[nH]1 [DB2Py(3)] was tested, and the “PARP2 % of residual activity (500 μM)” value [1] was ~ 100%, the remaining activity at 500 µM [2] was about 100% and the remaining activity at 500 µM [3] was 70 ± 11%. It also gave an IC50 [4] of 410 ± 90 nM.

With CC(=O)NCc1nc2ccc(-c3nc4ccc(N5CCN(C)CC5)cc4[nH]3)cc2[nH]1 [MB2(Ac)] the “PARP2 % of residual activity (500 μM)” value [1] was ~ 100%, the remaining activity at 500 µM [2] was about 100% and the remaining activity at 500 µM [3] was about 100%. For the same compound, the IC50 [4] was 1500 ± 500 nM.

For CCCn1cc(NC(=O)CCCCCCCCCCCC(=O)Nc2cc(-c3nc4ccc(-c5nc6ccc(N7CCN(C)CC7)cc6[nH]5)cc4[nH]3)n(CCC)c2)cc1-c1nc2ccc(-c3nc4ccc(N5CCN(C)CC5)cc4[nH]3)cc2[nH]1 [DB2Py(11)], the “PARP2 % of residual activity (500 μM)” value [1] was ~ 100%, the remaining activity at 500 µM [2] was about 100% and the remaining activity at 500 µM [3] was about 100%. For the same compound, the IC50 [4] was 900 ± 100 nM.

In the case of CN1CCN(c2ccc3nc(-c4ccc5nc(CNC(=O)CCCCN6CCN(CCCCC(=O)NCc7nc8ccc(-c9nc%10ccc(N%11CCN(C)CC%11)cc%10[nH]9)cc8[nH]7)CC6)[nH]c5c4)[nH]c3c2)CC1 [DB2P(4)], the “PARP2 % of residual activity (500 μM)” value [1] is reported as 85 ± 13%, the remaining activity at 500 µM [2] is reported as 33 ± 13% and the remaining activity at 500 µM [3] is reported as 44 ± 11%. The IC50 [4] was 2300 ± 300 nM.

CCCn1cc(NC(=O)CC(=O)Nc2cc(-c3nc4ccc(-c5nc6ccc(N7CCN(C)CC7)cc6[nH]5)cc4[nH]3)n(CCC)c2)cc1-c1nc2ccc(-c3nc4ccc(N5CCN(C)CC5)cc4[nH]3)cc2[nH]1 [DB2Py(1)] was tested, and the “PARP2 % of residual activity (500 μM)” value [1] was ~ 100%, the remaining activity at 500 µM [2] was about 100% and the remaining activity at 500 µM [3] was 55 ± 3%. The IC50 [4] was 250 ± 50 nM.

For CCCn1cc(NC(=O)CCCCCCCC(=O)Nc2cc(-c3nc4ccc(-c5nc6ccc(N7CCN(C)CC7)cc6[nH]5)cc4[nH]3)n(CCC)c2)cc1-c1nc2ccc(-c3nc4ccc(N5CCN(C)CC5)cc4[nH]3)cc2[nH]1 [DB2Py(7)], the “PARP2 % of residual activity (500 μM)” value [1] was ~ 100%, the remaining activity at 500 µM [2] was about 100% and the remaining activity at 500 µM [3] was about 100%. It also gave an IC50 [4] of 280 ± 10 nM.

Reference: publication PMC12799362, “The effect of dimeric bisbenzimidazoles on the activity of DNA repair enzymes TDP1, TDP2, PARP1 and PARP2” (Vavilov Journal of Genetics and Breeding, 2025)
